Key:
[1] = tested on: IL-6 release by cultured Kupffer cells; experiment: EGF-induced IL-6 release by cultured Kupffer cells (ELISA); assay type: cell-based, mouse
Description: (§1) Protocols for ELISA have been previously described (Natarajan, A. et al., 2007; Lichtenberger, B. M. et al., 2010; Sibilia, M. et al., 2000; Drobits, B. et al., 2012). ELISA for IL-6, IL17A, IL22, IL23 (eBioscience), amphiregulin (R&D Systems), CCL2, IL-1β and IL-1α (BD Biosciences-Pharmigen) were performed following the manufacturer's instructions. MTT assay (EZ4U, Biomedica) was performed to quantify the number of viable Kupffer cells in the wells. The cytokine value was normalized to the number of viable Kupffer cells.
Hepatocytes and Kupffer cells were isolated after liver perfusion according to previously published protocols (Smedsrod, B. et al., 1985) and either directly used for further analysis or cultured as follows. Hepatocytes were plated onto collagen pre-coated cell culture dishes and cultured in HepatoZyme-SFM (Gibco) supplemented with 2 mM glutamine and 1% penicillin-streptomycin (P/S). Hepatocytes were either treated with the indicated amounts of DEN for 24 hours or with 10 ng/ml TNFα (eBioscience) in the presence of cycloheximide (100 μg/ml, Sigma) for 12 hours to study the hepatoprotective role of EGFR. Kupffer cells were isolated and plated in RPMI 1640 with 10% FCS, 2 mM glutamine, 1% P/S for at least 24 hours followed by overnight starvation (in 0.5% FCS containing medium for cytokine induction; serum-free medium for signaling experiments). Kupffer cells were stimulated with IL-1β (10 ng/ml, eBioscience), EGF (10 ng/ml, Lonza), polylC (20 μg/ml, GE Healthcare), imiquimod (12 μg/ml, Invivogen) and LPS (10 ng/ml, Invivogen) for the time period indicated. […] Since the number of Kupffer cells which can be recovered from one mouse is very low, it was technically impossible to perform Western Blot analysis for all indicated signaling molecules on one single batch of Kupffer cells. Usually Kupffer cells from 2 livers of the same genotype were pooled together to obtain around 20-30 μg of protein lysate.

[2] = tested on: IL-6 secretion by isolated Kupffer cells; experiment: IL-1β-induced IL-6 production/secretion by isolated Kupffer cells (ELISA, qRT-PCR); assay type: cell-based, mouse; conditions: for IL-1β-induced release of IL-6: EGFR-expressing Kupffer cells, 24 hours after IL-1β, inhibitor pre-incubation, FIG. 10C
Description: ELISA for IL-6, IL17A, IL22, IL23 (eBioscience), amphiregulin (R&D Systems), CCL2, IL-1β and IL-1α (BD Biosciences-Pharmigen) were performed following the manufacturer's instructions. MTT assay (EZ4U, Biomedica) was performed to quantify the number of viable Kupffer cells in the wells. The cytokine value was normalized to the number of viable Kupffer cells.
(§2) Hepatocytes were plated onto collagen pre-coated cell culture dishes and cultured in HepatoZyme-SFM (Gibco) supplemented with 2 mM glutamine and 1% penicillin-streptomycin (P/S). Hepatocytes were either treated with the indicated amounts of DEN for 24 hours or with 10 ng/ml TNFα (eBioscience) in the presence of cycloheximide (100 μg/ml, Sigma) for 12 hours to study the hepatoprotective role of EGFR. […] Since the number of Kupffer cells which can be recovered from one mouse is very low, it was technically impossible to perform Western Blot analysis for all indicated signaling molecules on one single batch of Kupffer cells. Usually Kupffer cells from 2 livers of the same genotype were pooled together to obtain around 20-30 μg of protein lysate.

[3] = tested on: AR release by cultured Kupffer cells; experiment: AR (amphiregulin) release into supernatant of IL-1β stimulated Kupffer cells (ELISA); assay type: cell-based, mouse; conditions: 24 hours after IL-1β stimulation in presence of inhibitor; FIG. 10B
Description: as §1
Hepatocytes and Kupffer cells were isolated after liver perfusion according to previously published protocols (Smedsrod, B. et al., 1985) and either directly used for further analysis or cultured as follows. Hepatocytes were plated onto collagen pre-coated cell culture dishes and cultured in HepatoZyme-SFM (Gibco) supplemented with 2 mM glutamine and 1% penicillin-streptomycin (P/S). Hepatocytes were either treated with the indicated amounts of DEN for 24 hours or with 10 ng/ml TNFα (eBioscience) in the presence of cycloheximide (100 μg/ml, Sigma) for 12 hours to study the hepatoprotective role of EGFR. Kupffer cells were isolated and plated in RPMI 1640 with 10% FCS, 2 mM glutamine, 1% P/S for at least 24 hours followed by overnight starvation (in 0.5% FCS containing medium for cytokine induction; serum-free medium for signaling experiments). […]

[4] = tested on: patients with advanced non-small-cell lung cancer; conditions: meta-analysis; cited from earlier work
[5] = tested on: advanced stage HCC patients; conditions: cited from earlier work
[6] = tested on: DSS colitis in Adam17^ex/ex mice; conditions: exogenous supplementation; cited from earlier work
[7] = tested on: ulcerative colitis patients; conditions: EGF enemas; cited from earlier work
EGFR = EGFR phosphorylation in isolated Kupffer cells (Western blot); assay type: cell-based, mouse; conditions: EGFR expressing Kupffer cells; IL-1β as stimulus; FIGS. 10E, 10F
Description: as §2

human HCC cells = conditions: xenograft models with human HCC cells; W. Sieghart, unpublished results; cited from earlier work

C[S+]([O-])c1ccc(-c2nc(-c3ccncc3)c(-c3ccc(F)cc3)[nH]2)cc1 (centres unmarked) [SB203580, reference compound]
EGF-induced IL-6 production ([1]; EGFR-positive liver macrophages, 24 hours after EGF, inhibitor pre-incubation, FIG. 10D): inhibited | IL-1β-induced release of IL-6 [2]: inhibited

CC(C)C[C@H](CC(=O)NO)C(=O)N[C@@H](Cc1ccc2ccccc2c1)C(=O)N[C@@H](C)C(=O)NCCN [TAPI-1, reference compound]
AR release into the culture medium [3]: did not occur | IL-1β-induced release of IL-6 [2]: blocked

COc1cc2ncnc(Nc3ccc(F)c(Cl)c3)c2cc1OCCCN1CCOCC1 [gefitinib]
drug toxicity (diarrhea) [4]: increased drug toxicity in the form of diarrhea | clinical results in advanced stage HCC patients ([5]; advanced stage HCC): disappointing clinical results

TGFα: EGFR ligand transforming growth factor alpha, exogenous supplementation
rescue of colitis symptoms [6]: partial rescue

EGF: EGFR ligand epidermal growth factor (NSDSECPLSHDGYCLHDGVCMYIEALDKYACNCVVGYIGERCQYRDLKWWELR; UniProt P01133 971-1023, looked up)
disease remission [7]: induced disease remission | restoration of IL-6 production in MyD88−/− Kupffer cells ([1]; EGF as stimulus, FIG. 10D): fully restore | induction of IL-6 release ([1]; EGFR expressing Kupffer cells, EGF as stimulus, FIGS. 10C, 10D): sufficient and equally as potent as IL-1β

IL-1β: cytokine used to stimulate Kupffer cells
induction of EGFR phosphorylation (EGFR): able to induce | induction of IL-6 transcripts and IL-6 protein in the culture medium ([2]; Kupffer cells expressing EGFR, IL-1β as stimulus, FIGS. 8E, 8F): induced

C#Cc1cccc(Nc2ncnc3cc(OCCOC)c(OCCOC)cc23)c1 [erlotinib]
drug toxicity (diarrhea) [4]: increased drug toxicity in the form of diarrhea | reduction of HCC burden (human HCC cells): ineffective | synergistic effect of combination therapy with sorafenib (human HCC cells): did not show any synergistic effect | effects in phase 2 trials (disease stabilization at 6 months) ([5]; HCC, phase 2): moderate effects | improvement in survival through addition of erlotinib ([5]; SEARCH trial, phase III, advanced stage HCC-patients): unable to show any improvement in survival

Reference: patent US10309966B2, “Personalized therapy of inflammation-associated cancer using methods of assessing the susceptibility of a subject to the treatment with EGFR inhibitors/antagonists” (Medizinische Universität Wien, priority 2014, dated 2019)
